The compounds below were run against human GSK3β (Homo sapiens, UniProt P49841) (assay: Screening for GSK3 inhibitory activity using a cell-free assay). Details: read-out: IC50 with respect to GSK3.
Type: biochemical
Description: This amount represents the amount of radiolabeled phosphate incorporated into the peptide substrate.
The captured radiolabeled peptide substrate can be quantitated in a scintillation counter using known methods. […] If an inhibitor is present during the reaction, GSK3 activity will be reduced, and a smaller quantity of radiolabeled phosphate will thus be incorporated into the peptide substrate.
Pyrimidine and pyridine compounds of the present invention were dissolved in DMSO, then tested for inhibition of human GSK3β (the nucleotide sequence for human GSK3β appears in GenBank under Accession No. L33801).
While the reaction was proceeding, streptavidin-coated Labsystems “Combiplate 8” capture plates (Labsystems, Helsinki, Finland) were blocked by incubating them with 300 μl/well of PBS containing 1% bovine serum albumin for at least one hour at room temperature. The blocking solution was then removed by aspiration, and the capture plates were filled with 100 ul/well of stopping reagent (50 μM ATP/20 mM EDTA).
When the three hour enzyme reaction was finished, triplicate 100 μl aliquots of each reaction mix were transferred to three wells containing stopping solution, one well on each of the three capture plates, and the well contents were mixed well. […] Finally, 200 μl of Microscint-20 scintillation fluid was added to each well of the plate. The plates were coated with plate sealers, then left on a shaker for 30 minutes. Each capture plate was counted in a Packard TopCount scintillation counter (Meridian, Conn.) and the results were plotted as a function of compound concentration.

Sequence of human GSK3β (P49841 whole entry): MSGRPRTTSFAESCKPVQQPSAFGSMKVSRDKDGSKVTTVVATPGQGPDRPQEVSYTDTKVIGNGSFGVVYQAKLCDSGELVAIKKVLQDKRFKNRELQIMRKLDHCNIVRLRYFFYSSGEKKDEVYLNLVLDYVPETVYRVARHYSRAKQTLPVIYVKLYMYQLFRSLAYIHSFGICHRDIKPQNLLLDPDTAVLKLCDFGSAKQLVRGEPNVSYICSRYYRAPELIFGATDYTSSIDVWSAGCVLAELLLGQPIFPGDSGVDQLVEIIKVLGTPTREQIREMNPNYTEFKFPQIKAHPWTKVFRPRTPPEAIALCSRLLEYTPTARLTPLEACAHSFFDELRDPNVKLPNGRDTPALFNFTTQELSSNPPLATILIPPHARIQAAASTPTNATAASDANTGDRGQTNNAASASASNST

IC50 | SMILES
≤ 1000 nM | O=C(O)c1ccc(-c2nc(NCCNc3ccc([N+](=O)[O-])cn3)nc(-c3ccc([N+](=O)[O-])cc3)c2C(=O)O)cc1 [4-(4-carboxyphenyl)-2-({2-[(5-nitro(2-pyridyl))amino]-ethyl}amino)-6-(4-nitrophenyl)pyrimidine-5-carboxylic acid]
≤ 1000 nM | N#Cc1ccc(-c2nc(NCCNc3ccc([N+](=O)[O-])cn3)nc(-c3ccc([N+](=O)[O-])cc3)c2C(=O)O)cc1 [4-(4-cyanophenyl)-2-({2-[(5-nitro(2-pyridyl))-amino]ethyl}amino)-6-(4-nitrophenyl)pyrimidine-5-carboxylic acid]
≤ 1000 nM | N#Cc1ccc(-c2nc(NCCNc3ccc([N+](=O)[O-])cn3)ncc2C(N)=O)cc1 [4-(4-cyanophenyl)-2-({2-[(5-nitro(2-pyridyl))-amino]ethyl}amino)pyrimidine-5-carboxamide]
≤ 1000 nM | N#Cc1ccc(-c2nc(NCCNc3ccc([N+](=O)[O-])cn3)nc(-c3cccc([N+](=O)[O-])c3)c2C(=O)O)cc1 [4-(4-cyanophenyl)-2-({2-[(5-nitro(2-pyridyl))amino]ethyl}amino)-6-(3-nitrophenyl)pyrimidine-5-carboxylic acid]
≤ 1000 nM | N#Cc1ccc(-c2nc(NCCNc3ccc([N+](=O)[O-])cn3)nc(-c3ccccc3)c2C(=O)O)cc1 [4-(4-cyanophenyl)-2-({2-[(5-nitro(2-pyridyl))amino]ethyl}amino)-6-phenylpyrimidine-5-carboxylic acid]
≤ 1000 nM | N#Cc1ccc(-c2nc(NCCNc3ccc([N+](=O)[O-])cn3)ncc2C#N)cc1 [4-(4-cyanophenyl)-2-({2-[(5-nitro(2-pyridyl))amino]ethyl}amino)pyrimidine-5-carbonitrile]
≤ 1000 nM | N#Cc1ccc(-c2nc(NCCNc3ccc([N+](=O)[O-])cn3)ncc2C(=O)O)cc1 [4-(4-cyanophenyl)-2-({2-[(5-nitro(2-pyridyl))amino]ethyl}amino)pyrimidine-5-carboxylic acid]
≤ 1000 nM | N#Cc1ccc(-c2nc(NCCNc3ccc([N+](=O)[O-])cn3)nc(-c3ccoc3)c2C(=O)O)cc1 [4-(4-cyanophenyl)-6-(3-furyl)-2-({2-[(5-nitro(2-pyridyl))-amino]ethyl}amino)pyrimidine-5-carboxylic acid]
≤ 1000 nM | N#Cc1ccc(-c2nc(NCCNc3ccc([N+](=O)[O-])cn3)nc(-c3ccc(F)cc3)c2C(=O)O)cc1 [4-(4-cyanophenyl)-6-(4-fluorophenyl)-2-({2-[(5-nitro(2-pyridyl))amino]ethyl}-amino)pyrimidine-5-carboxylic acid]
≤ 10000 nM | COc1ccc(-c2nc(NCCNc3ccc([N+](=O)[O-])cn3)nc(-c3ccc([N+](=O)[O-])cc3)c2C(=O)O)cc1 [4-(4-methoxyphenyl)-2-({2-[(5-nitro(2-pyridyl))amino]ethyl}-amino)-6-(4-nitrophenyl)pyrimidine-5-carboxylic acid]
≤ 1000 nM | N#Cc1cnc(NCCNc2nccc(-c3ccc(C(N)=O)cc3)n2)nc1N [4-[2-({2-[(4-amino-5-cyano-pyrimidin-2-yl)amino]ethyl}amino)pyrimidin-4-yl]benzamide]
≤ 1000 nM | N#Cc1ccc(NCCNc2nccc(-c3ccc(C(N)=O)cc3)n2)nc1 [4-[2-({2-[(5-cyano-2-pyridyl)amino]-ethyl}amino)pyrimidin-4-yl]benzamide]
≤ 1000 nM | N#Cc1ccc(-c2nc(NCCNc3ccc([N+](=O)[O-])cn3)ncc2NCc2ccccc2)cc1 [4-[2-({2-[(5-nitro(2-pyridyl))amino]ethyl}amino)-5-[benzylamino]pyrimidin-4-yl]benzenecarbonitrile]
≤ 10000 nM | O=[N+]([O-])c1ccc(NCCNc2ncc(-c3ccccc3)c(-c3ccc(O)cc3)n2)nc1 [4-[2-({2-[(5-nitro(2-pyridyl))amino]ethyl}amino)-5-phenylpyrimidin-4-yl]phenol]
≤ 10000 nM | O=[N+]([O-])c1ccc(NCCNc2nccc(-c3ccc(O)cc3)n2)nc1 [4-[2-({2-[(5-nitro-2-pyridyl)-amino]ethyl}amino)pyrimidin-4-yl]phenol]
≤ 1000 nM | NC(=O)c1ccc(-c2ccnc(NCCNc3ccc([N+](=O)[O-])cn3)n2)cc1 [4-[2-({2-[(5-nitro-2-pyridyl)amino]ethyl}amino)-pyrimidin-4-yl]benzamide]
≤ 10000 nM | NS(=O)(=O)c1ccc(-c2ccnc(NCCNc3ccc([N+](=O)[O-])cn3)n2)cc1 [4-[2-({2-[(5-nitro-2-pyridyl)amino]ethyl}amino)pyrimidin-4-yl]benzenesulfonamide]
≤ 1000 nM | N#Cc1ccc(-c2nc(NCCNc3ccc([N+](=O)[O-])c(N)n3)ncc2-c2ncc[nH]2)cc1 [4-[2-({2-[(6-amino-5-nitro(2-pyridyl))amino]-ethyl}amino)-5-imidazol-2-ylpyrimidin-4-yl]benzenecarbonitrile]
≤ 1000 nM | COc1cccc(NCCNc2nccc(-c3ccc(C(N)=O)cc3)n2)n1 [4-[2-({2-[(6-methoxy-2-pyridyl)amino]ethyl}amino)pyrimidin-4-yl]benzamide]
≤ 1000 nM | NC(=O)c1ccc(-c2ccnc(NCCCOc3cccc(C(F)(F)F)c3)n2)cc1 [4-[2-({3-[3-(trifluoromethyl)phenoxy]propyl}amino)pyrimidin-4-yl]benzamide]
≤ 1000 nM | NC(=O)c1ccc(-c2ccnc(NCCCNc3ccc([N+](=O)[O-])cn3)n2)cc1 [4-[2-({3-[(5-nitro-2-pyridyl)amino]propyl}amino)pyrimidin-4-yl]benzamide]
≤ 10000 nM | NC(=O)c1ccc(-c2ccnc(NCc3cc(C(F)(F)F)cc(C(F)(F)F)c3)n2)cc1 [4-[2-({[3,5-bis(trifluoromethyl)phenyl]methyl}amino)pyrimidin-4-yl]benzamide]
≤ 10000 nM | NC(=O)c1ccc(-c2ccnc(NCc3cccc(-c4cccc(N)c4)c3)n2)cc1 [4-[2-({[3-(3-aminophenyl)phenyl]methyl}amino)pyrimidin-4-yl]benzamide]
≤ 10000 nM | COc1cccc(-c2cccc(CNc3nccc(-c4ccc(C(N)=O)cc4)n3)c2)c1 [4-[2-({[3-(3-methoxyphenyl)phenyl]methyl}amino)pyrimidin-4-yl]benzamide]
≤ 10000 nM | NC(=O)c1ccc(-c2ccnc(NCc3cccc(C(F)(F)F)c3)n2)cc1 [4-[2-({[3-(trifluoromethyl)phenyl]methyl}amino)pyrimidin-4-yl]-benzamide]
≤ 10000 nM | NC(=O)c1ccc(-c2ccnc(NCc3ccc(-c4cccc(N)c4)cc3)n2)cc1 [4-[2-({[4-(3-aminophenyl)phenyl]methyl}amino)pyrimidin-4-yl]benzamide]
≤ 10000 nM | NC(=O)c1ccc(-c2ccnc(NCc3ccc(-c4ccc(F)cc4)cc3)n2)cc1 [4-[2-({[4-(4-fluorophenyl)phenyl]methyl}amino)pyrimidin-4-yl]benzamide]
≤ 10000 nM | NC(=O)c1ccc(-c2ccnc(NCc3ccc(C(F)(F)F)cc3)n2)cc1 [4-[2-({[4-(trifluoromethyl)phenyl]methyl}amino)pyrimidin-4-yl]benzamide]
≤ 1000 nM | Cc1noc(-c2cnc(NCCNc3ccc([N+](=O)[O-])cn3)nc2-c2ccc(C#N)cc2)n1 [4-[5-(3-methyl(1,2,4-oxadiazol-5-yl))-2-({2-[(5-nitro(2-pyridyl))amino]-ethyl}amino)pyrimidin-4-yl]benzenecarbonitrile]

From patent publication US7425557B2, “Inhibitors of glycogen synthase kinase 3” (Novartis Vaccines and Diagnostics, Inc., priority 1998, dated 2008)
